Legend:
[1] = tested on: adult hippocampal slices (12-24 weeks); assay: Excitatory synaptic transmission (fEPSP) in adult hippocampal slices; type: cell-based, Sprague Dawley rats; conditions: 25 nM; 20 min; adult (12-24 weeks) slices
Experimental: Parasagittal hippocampal slices (300 μm) were prepared from either P13-21 or 12-24-week-old male Sprague Dawley rats as previously (Moult et al. 2010). Brains were rapidly removed and placed in ice-cold artificial CSF (aCSF; bubbled with 95% O2 and 5% CO2) containing the following (in mm): 124 NaCl, 3 KCl, 26 NaHCO3, 1.25 NaH2PO4, 2 CaCl2, 1 MgSO4, and 10 d-glucose. Once prepared, parasagittal slices were allowed to recover at room temperature in oxygenated aCSF for 1 h before use. Slices were transferred to a submerged chamber maintained at room temperature and perfused with artificial cerebrospinal fluid at 2 ml min^−1. Standard extracellular recordings were used to monitor evoked field excitatory postsynaptic potentials (fEPSP) from stratum radiatum. The Schaffer collateral-commissural pathway was stimulated (constant voltage; 0.1 ms) at 0.033 Hz, using a stimulus intensity that evoked a peak amplitude ˜50% of the maximum. Synaptic potentials were low pass filtered at 2 kHz and digitally sampled at 10 kHz. The fEPSP slope was measured and expressed relative to baseline. Synaptic records are the average of 4 consecutive responses and stimulus artefacts are blanked for clarity. Recordings were made using an Axopatch 200B amplifier and analyzed using LTP v2.4 software. In synaptic plasticity studies, the degree of potentiation was calculated 30-35 min after HFS and expressed as a percentage of baseline±standard error of mean (SEM).
We have shown that leptin regulation of excitatory synaptic transmission is age-dependent. Thus in contrast to its effects in juvenile tissue, leptin (25 nM) induces a novel form of LTP in adult hippocampus (Moult and Harvey 2011). In order to verify if the leptin fragments mirror leptin action in adult tissue, the effects of the leptin fragments were examined in hippocampal slices from adult (12-24 weeks) rats.

[2] = tested on: differentiated human neural cells (SH-SY5Y); assay: LDH release assay (membrane leakage, cell death); type: cell-based; conditions: for reduction of LDH release compared with Aβ1-42 alone, hexamer study: n=11; for reduction of LDH release in Aβ1-42 treated cells: n=5; for reduction of LDH release compared with CuCl2 alone: 5 μM CuCl2
Experimental: (§1) The human neuroblastoma cell line, SH-SY5Y (ECACC, UK) was maintained in Dulbecco's Modified Eagle Medium supplemented with glucose ([…]) and 10% (v/v) cosmic calf serum (Fisher Scientific, UK) at 37° C. in a humidified atmosphere of 5% CO2, 95% air and allowed to reach 70-80% confluence before seeding. Cells (passage 10-18) were plated at 10 000 cells per well in 96 well tissue culture plates (Nunc, VWR, UK) and at a density of 2×10^5 cells in 35 mm dishes for protein extraction. To induce differentiation, cells were cultured in DMEM supplemented with glucose ([…]), 1% (v/v) cosmic calf serum and 10 μM retinoic acid for 5 days. Thereafter they were incubated in DMEM supplemented with glucose ([…]), serum replacement 2 (2%; Sigma, UK) and 18 μM 5-fluorodeoxyuridine to inhibit proliferation of undifferentiated cells. The 50% of the medium was changed every 2-3 days and pharmacological treatment was carried out 7 days after switching to this medium. Reagents used were (from Sigma UK unless stated) 0.1-10 nM human leptin and leptin (116-130); 0.1-10 nM leptin (22-56; Bachem; Switzerland); 10 nM leptin (116-121) leptin (117-122), leptin (124-129) or leptin (125-130; all Severn Biotech, UK); 5 μM copper chloride; […], 5 μM WP1066 or 50 nM wortmannin. All treatments were added to the culture at the same time and survival assays were carried out after 96 h treatment. Protein samples for signaling ELISA were extracted 3 h after exposure to the relevant reagents and for biomarker expression after 72 hours.
(§2) The concentration of lactate dehydrogenase (LDH) in the culture medium or the mitochondrial activity within cells was used to monitor the level of cell death, as previously (Oldreive and Doherty 2010). In certain experiments, a Crystal violet assay was used to assess total cell number. Cells were fixed in neutral buffered formalin and washed 3 times in PBS prior to staining with 0.01% crystal violet acetate for 5 min. Plates were washed 5-10 times in dH2O and cells solubilised in 100 μl dimethyl sulfoxide (DMSO) before reading the absorbance on a Biohit BP100 plate reader. For all assays, data is expressed as percentage relative to control, untreated wells to normalize for differences in plating density between individual experiments.
To determine whether leptin (116-130) has neuroprotective actions, the effects of leptin (116-130) on the viability of differentiated human neural cells (SH-SY5Y) was examined after exposure to either 5 μM CuCl2 or 10 μM Aβ1-42. Cells were treated with the toxin alone or with a range of concentrations (10-0.1 nM) of leptin or leptin (116-130). […] Thus like leptin, treatment with leptin (116-130) reduces neuronal death in response to AD-linked toxins in vitro.

[3] = tested on: differentiated SH-SY5Y human neuronal cells; assay: MTT assay of mitochondrial activity (cell viability); type: cell-based; conditions: 10 nM; n=11
Experimental: as §1, §2
To confirm the findings of the LDH assay, cells were treated with Aβ1-42 alone or with a 10 nM of leptin, leptin (116-130) or the listed hexamers, and mitochondrial activity, as a measure of cell viability, determined by MTT assay. A significant increase in mitochondrial activity was detected following treatment with either leptin or leptin (116-130; both 10 nM). […] Thus for Aβ1-42-treated cells, 10 nM leptin and 10 nM leptin (116-130) increased mitochondrial activity by 32.6±5.2% and 40.9+5.8% respectively compared with Aβ1-42 alone (n=11; P<0.001; FIG. 11B); an effect that was mirrored by 10 nM leptin (116-121) and leptin (117-122); 43.61±3.9% and 40.5±3.7*% (n=11; P<0.001; FIG. 11B), but not by 10 nM leptin (124-129) or leptin (125-130) (n=11; P>0.5; FIG. 11B). This reinforces the findings from the LDH assay that similar to either leptin or leptin (116-130), treatment with leptin (116-121) or leptin (117-122) reduces neuronal death in response to AD-linked toxins in vitro.

Row | Substance | synaptic transmission [1] | increase in LDH release, Aβ1-42 alone ([2]; 10 μM Aβ1-42) | increase in mitochondrial activity compared with Aβ1-42 alone [3] | reduction of LDH release compared with Aβ1-42 alone, hexamer study ([2]; 10 nM, 10 μM Aβ1-42) | reduction of LDH release in Aβ1-42 treated cells ([2]; 0.1 nM, 10 μM Aβ1-42) | reduction of LDH release compared with CuCl2 alone ([2]; 10 nM) | reduction of LDH release in Aβ1-42 treated cells ([2]; 10 nM, 10 μM Aβ1-42) | increase in LDH release with PI3-kinase inhibitor ([2]; leptin (116-130) and Aβ1-42-treated cells plus wortmannin (50 nM)) | increase in LDH release with STAT3 inhibitor ([2]; leptin (116-130) and Aβ1-42-treated cultures plus WP1066 (5 μM))
1 | leptin (22-56): leptin fragment amino acids 22-56 (Bachem), comparison fragment (VPIQKVQDDTKTLIKTIVTRINDISHTQSVSSKQK; UniProt P41159 22-56, looked up, fragment) [reference compound] | 99±2 % of baseline |  |  |  |  |  |  |  | 
2 | Aβ1-42: amyloid beta 1-42, toxin used in the AD models [reference compound] |  | 26.7±4.4% |  |  |  |  |  |  | 
3 | CSLPQT (listed as Mus musculus) [leptin (117-122)] |  |  | 40.5±3.7% | 27.4±3.5% |  |  |  |  | 
4 | leptin: the metabolic hormone leptin, whole (full length) leptin molecule; human leptin from Sigma in SH-SY5Y work | 188±13 % of baseline |  | 32.6±5.2% | 25.3±2.5% | 31.8±13.2% | 39.5±2.73% | 47.9±7.45% |  | 
5 | SCSLPQTSGLQKPES (listed as Mus musculus) [leptin (116-130)] | 140±13 % of baseline |  | 40.9 ± 5.8% | 24.0 ± 2.2% | 26.7±17.3% | 45.6±2.92% | 46.6±9% | 26.9±9.8% | 18.3±3.2%
6 | SCSLPQ (listed as Mus musculus) [leptin (116-121)] |  |  | 43.61±3.9% | 27.1±3.1% |  |  |  |  | 

— patent US20200255492A1, “LEPTIN PEPTIDES AND THEIR USE FOR TREATING NEUROLOGICAL DISORDERS” (UNIVERSITY OF DUNDEE, priority 2017, published 2020)
